Experimental data published in patent publication US20190374601A1, “METHODS FOR TREATING FUNGAL INFECTIONS” (priority 2017, published 2019).
Several values for one entry are separate records, joined by “and”; a condition that tells them apart may be missing. Identical values can stand only once. Starred links: 1 amine or outer side, 2 acyl side, 3 side chain; linkers in the order of their positions; H or OH if unused. Positions of bridges follow the written chain, without caps; N, C: chain ends. Non-standard residues stand in square brackets, D forms with d. Residues, ends and D or L forms follow the SMILES beside them. *: point of attachment. Orn(4R-OH,5R-OCH2CH2NMe3+) = C[N+](C)(C)CCO[C@@H](N[*:3])[C@H](O)C[C@H](N[*:1])C(=O)[*:2]; pTerphenylCO(4''-OnC5H11) = CCCCCOc1ccc(-c2ccc(-c3ccc(C(=O)*)cc3)cc2)cc1; hTyr(3S-OH,4S-OH) = N[C@H](C(=O)O)[C@H](O)[C@@H](O)c1ccc(O)cc1; Pro(3S-OH,4S-Me) = C[C@H]1CN[C@H](C(=O)O)[C@H]1O; Hyp = O=C(O)[C@@H]1C[C@@H](O)CN1

Tests used:
Format in all cases: in vivo
[1] = Tissue concentration of subcutaneously injected CD101 in cynomolgus monkeys; conditions: for CD101 Concentration: individual animals, at necropsy; for Mean Concentration: mean of males and females
Procedure: In this study, the tissue concentration of subcutaneously injected CD101 was evaluated in cynomolgus monkeys.
(§1) Dose levels were 30, 60, and 120 mg/kg/dose for Groups 2, 3, and 4, respectively. […] The dose volumes were 1.2, 0.3, 0.6, and 1.2 mL/kg spread evenly over 4, 1, 2, and 4 dose sites for Groups 1-4, respectively, on each day of dosing. The control and 120 mg/kg/dose groups each consisted of 5 males and 5 females, and the 30 and 60 mg/kg/dose groups each consisted of 3 males and 3 females.
(§2) The animals were observed twice daily for mortality and moribundity. Clinical examinations were performed once daily for at least 6 consecutive days, including the day of randomization, prior to randomization, prior to dosing, 1-2 hours postdosing, once daily on nondosing days, and once daily during the recovery period. Detailed physical examinations were performed at least weekly during the acclimation period until randomization, on the day of randomization, weekly (±2 days) during the study period, and on the day of the scheduled necropsies. Injection site (IS) observations were performed prior to dosing (dose sites that were utilized on that day of dosing), 1-2 hours postdosing (dose sites that were utilized on that day of dosing), once daily on nondosing days (dose sites that had been previously been utilized), and twice weekly during the recovery period. Individual body weights were recorded weekly (±2 days). Individual body weights were collected at least weekly during the acclimation period until randomization, on the day of randomization, Study Day 0 (prior to dosing), weekly (2±days) during the study period, on the day prior to the day of the scheduled necropsies (nonfasted) and on the day of the scheduled necropsies (fasted). Clinical pathology parameters (hematology, coagulation, serum chemistry, and urinalysis) were analyzed during acclimation prior to randomization (Study Day −15), and on the day of the primary (Study Day 17) and recovery (Study Day 45) necropsies. Blood samples for toxicokinetic evaluation were collected from all animals/sex/group/time point prior to dose administration and at approximately 1, 2, 4, 8, 24, 48, and 72 hours after dose administration on Study Days 0 and 12. Complete necropsies were performed on all animals, and selected organs were weighed at the scheduled necropsies. Selected tissues were examined microscopically from all animals. Fingernail, toenail, nail bed, and abdominal skin samples were collected from all animals at the scheduled necropsies for bioanalytical analysis.

[2] = Mortality, clinical observations and body weights after subcutaneous injection in cynomolgus monkeys; conditions: 30, 60, 120 mg/kg/dose SC once every 3 days (5 doses)
Procedure: as §1
The animals were observed twice daily for mortality and moribundity. Clinical examinations were performed once daily for at least 6 consecutive days, including the day of randomization, prior to randomization, prior to dosing, 1-2 hours postdosing, once daily on nondosing days, and once daily during the recovery period. Detailed physical examinations were performed at least weekly during the acclimation period until randomization, on the day of randomization, weekly (±2 days) during the study period, and on the day of the scheduled necropsies. […] Individual body weights were recorded weekly (±2 days). […] Clinical pathology parameters (hematology, coagulation, serum chemistry, and urinalysis) were analyzed during acclimation prior to randomization (Study Day −15), and on the day of the primary (Study Day 17) and recovery (Study Day 45) necropsies. […]

[3] = Toxicokinetic evaluation (plasma) after subcutaneous injection in cynomolgus monkeys
Procedure: as §1, §2

[4] = test system: T. mentagrophytes ATCC 24953; test: Hair root invasion test (mycological evaluation), T. mentagrophytes dermatophytosis guinea pig model, Example 1; conditions: evaluated study day 10, relative to vehicle control
Procedure: A request was made to the Animal Resource Center (ARC) at Case Western Reserve University to order the required number of male albino Harlan-Sprague-Dawley Guinea-Pigs (San Diego, Calif.) with a body weight of 450-500 g. Animals were allowed to acclimate for a minimum of 5 days prior to use. Environmental controls for the animal room were set to maintain a temperature of 16 to 22° C., a relative humidity of 30-70%, and a 12:12 light-dark cycle.
T. mentagrophytes ATCC 24953 was used as the infecting fungus. This strain was selected because it can cause skin infection and results in inflammatory reaction.
T. mentagrophytes (from frozen stock) was sub-cultured on Potato Dextrose Agar plates and incubated at 30° C. for 5-7 days. The colonies were scraped from the plates using sterile normal saline (NaCl 0.85%) solution. After washing for three times with sterile saline the conidia were re-suspended in the same solution. Ten-fold dilutions of conidia suspension were prepared and counted using a hemacytometer. Working suspension of conidia was prepared at a final concentration of 1×10^7 Colony Forming Units (CFUs)/100 μL in normal saline.
Each animal was anesthetized with a cocktail of xylazine and ketamine: 0.2 mL intramuscularly. Using an electric shaver, hair was clipped on left side of the guinea pig back. A closer shave was done with a disposable razor. Using a stencil, a square of 2.5 cm×2.5 cm was marked. The marked skin area was abraded with sterile fine grit sandpaper. A cell suspension containing 1×10^7 conidia in 100 μL was applied and rubbed thoroughly on the abraded skin.
Beginning two hours post inoculation, animals were treated subcutaneously (SQ) for CD101 and orally (PO) terbinafine once daily for a period of nine days, or once a week on days 1 and 8.
Study Day 1: Infected the animals with T. mentagrophytes and begin treatments.
Study Day 9 (treatment day 9): End treatments.
Study Day 10: Clinical evaluation of the four quadrants in the marked area was done. Hair samples were obtained from each quadrant (10 per quadrant). Hairs were planted in Potato Dextrose Agar, and incubated for 48 h for mycological evaluation. Procedures for clinical and mycological evaluations are described below.
CD101 was administered SQ in 0.3 mL, while the terbinafine was given orally in 0.3 mL. Vehicle treated group was also included.
Hair samples were removed with a sterile forceps from four quadrants. Ten hair samples from each quadrant were inoculated onto the corresponding quadrant on the Potato Dextrose agar plate and incubated at 30° C. for 2 days. The fungal growth at the hair root was examined under a stereomicroscope. The effectiveness of a compound in reducing the number of mycologically positive hair sample per treated group is expressed as percentage relative to the vehicle control group of animals using the following formula:
where, T=Positive hair in the test group, K=Positive hair in the Untreated control.

Compound: CCCCCOc1ccc(-c2ccc(-c3ccc(C(=O)N[C@H]4C[C@@H](O)[C@@H](OCC[N+](C)(C)C)NC(=O)[C@@H]5[C@@H](O)[C@@H](C)CN5C(=O)[C@H]([C@@H](C)O)NC(=O)[C@H]([C@H](O)[C@@H](O)c5ccc(O)cc5)NC(=O)[C@@H]5C[C@@H](O)CN5C(=O)[C@H]([C@@H](C)O)NC4=O)cc3)cc2)cc1 [CD101] ({pTerphenylCO(4''-OnC5H11)}-[Orn(4R-OH,5R-OCH2CH2NMe3+)]T[Hyp][hTyr(3S-OH,4S-OH)]T[Pro(3S-OH,4S-Me)]; lactam 1-C)
- CD101 Concentration ([1]; Fingernail bed, 30 mg/kg/dose SC once every 3 days (5 doses), 30 mg/kg): 168 µg/g and 160 µg/g and 92.5 µg/g and 75.9 µg/g and 71.9 µg/g and 48.6 µg/g
- Mean Concentration ([1]; Fingernail bed, 30 mg/kg/dose SC): 103 µg/g
- CD101 Concentration ([1]; Fingernail bed, 60 mg/kg/dose SC once every 3 days (5 doses), 60 mg/kg): 218 µg/g and 96.7 µg/g and 251 µg/g and 159 µg/g and 175 µg/g and 184 µg/g
- Mean Concentration ([1]; Fingernail bed, 60 mg/kg/dose SC): 181 µg/g
- CD101 Concentration ([1]; Fingernail bed, 120 mg/kg/dose SC once every 3 days (5 doses), 120 mg/kg): 1351 µg/g and 404 µg/g and 67.1 µg/g and 129 µg/g and 346 µg/g and 332 µg/g and 330 µg/g and 147 µg/g and 283 µg/g and 114 µg/g
- Mean Concentration ([1]; Fingernail bed, 120 mg/kg/dose SC): 350 µg/g
- CD101 Concentration ([1]; Fingernail, 30 mg/kg/dose SC once every 3 days (5 doses), 30 mg/kg): 106 µg/g and 118 µg/g and 63.6 µg/g and 60.8 µg/g and 74.2 µg/g
- CD101 Concentration ([1]; Fingernail, 60 mg/kg/dose SC once every 3 days (5 doses), 60 mg/kg): 194 µg/g and 108 µg/g and 527 µg/g and 171 µg/g and 155 µg/g and 175 µg/g
- Mean Concentration ([1]; Fingernail, 60 mg/kg/dose SC): 222 µg/g
- CD101 Concentration ([1]; Fingernail, 120 mg/kg/dose SC once every 3 days (5 doses), 120 mg/kg): 266 µg/g and 264 µg/g and 445 µg/g and 469 µg/g and 239 µg/g and 244 µg/g and 269 µg/g and 459 µg/g and 348 µg/g and 339 µg/g
- Mean Concentration ([1]; Fingernail, 120 mg/kg/dose SC): 334 µg/g
- CD101 Concentration ([1]; Skin, 30 mg/kg/dose SC once every 3 days (5 doses), 30 mg/kg): 38.2 µg/g and 44.4 µg/g and 43.7 µg/g
- CD101 Concentration ([1]; Skin, 60 mg/kg/dose SC once every 3 days (5 doses), 60 mg/kg): 108 µg/g and 66.2 µg/g and 99.6 µg/g and 48.8 µg/g and 81.7 µg/g and 82.0 µg/g
- Mean Concentration ([1]; Skin, 60 mg/kg/dose SC): 81.0 µg/g
- CD101 Concentration ([1]; Skin, 120 mg/kg/dose SC once every 3 days (5 doses), 120 mg/kg): 133 µg/g and 132 µg/g and 32.0 µg/g and 12.2 µg/g and 141 µg/g and 151 µg/g and 77.6 µg/g and 43.1 µg/g and 135 µg/g and 15.9 µg/g
- Mean Concentration ([1]; Skin, 120 mg/kg/dose SC): 87.3 µg/g
- CD101 Concentration ([1]; Toenail bed, 30 mg/kg/dose SC once every 3 days (5 doses), 30 mg/kg): 76.9 µg/g and 102 µg/g and 50.5 µg/g and 86.1 µg/g and 82.9 µg/g
- Mean Concentration ([1]; Toenail bed, 30 mg/kg/dose SC): 74.7 µg/g
- CD101 Concentration ([1]; Toenail, 30 mg/kg/dose SC once every 3 days (5 doses), 30 mg/kg): 76.0 µg/g and 74.2 µg/g and 126 µg/g and 58.8 µg/g and 42.8 µg/g and 38.3 µg/g
- Mean Concentration ([1]; Toenail, 30 mg/kg/dose SC): 69.3 µg/g
- CD101 Concentration ([1]; Toenail, 60 mg/kg/dose SC once every 3 days (5 doses), 60 mg/kg): 265 µg/g and 86.7 µg/g and 198 µg/g and 106 µg/g and 160 µg/g and 79.2 µg/g
- Mean Concentration ([1]; Toenail, 60 mg/kg/dose SC): 149 µg/g
- CD101 Concentration ([1]; Toenail, 120 mg/kg/dose SC once every 3 days (5 doses), 120 mg/kg): 268 µg/g and 182 µg/g and 360 µg/g and 162 µg/g and 416 µg/g and 173 µg/g and 206 µg/g and 318 µg/g and 190 µg/g and 193 µg/g
- Mean Concentration ([1]; Toenail, 120 mg/kg/dose SC): 247 µg/g
- survival [2]: All animals survived to the scheduled necropsies
- test article-related clinical observations and effects on body weights [2]: no test article-related clinical observations or effects on body weights
- combined accumulation ratio (plasma) ([3]; 30 mg/kg/dose SC once every 3 days, males and females combined): 3.18
- combined accumulation ratio (plasma) ([3]; 60 mg/kg/dose SC once every 3 days, males and females combined): 2.70
- combined accumulation ratio (plasma) ([3]; 120 mg/kg/dose SC once every 3 days, males and females combined): 2.67
- time by which concentrations reached maximum or near maximum observed values ([3]; Study Day 0, postdose, SC): ≤ 8 h
- increase of combined exposure (AUC0-72 and Cmax) over a 4-fold dose change ([3]; Study Day 12, 30 to 120 mg/kg/dose SC): approximately 3 fold
- predose concentration on Study Day 12 relative to Study Day 0 Cmax ([3]; Study Day 12 predose, SC once every 3 days): approximately 2 fold
- Cmax ([3]; both sexes, cynomolgus monkey, plasma, range across the 30 to 120 mg/kg groups, males and females combined, SC): 21000 to 65100 ng/mL
- AUC(0-t) ([3]; both sexes, cynomolgus monkey, plasma, range across the 30 to 120 mg/kg groups, males and females combined, SC, read-out: AUC0-72): 1360 to 4320 µg·h/mL
- Percent Efficacy Mycological ([4]; 35 mg/kg SQ daily for nine days): 88.0%
- Percent Efficacy Mycological ([4]; 35 mg/kg SQ once a week (days 1 and 8)): 85.5%
